What was measured:
[1] = molecular target: 5-hydroxytryptamine receptor 2A (Homo sapiens, UniProt P28223); experiment: Binding affinity against human 5-hydroxytryptamine 2A receptor
[2] = molecular target: 5-hydroxytryptamine receptor 2A (Rattus norvegicus, UniProt P14842); experiment: Binding affinity against rat 5-hydroxytryptamine 2A receptor
[3] = molecular target: D(2) dopamine receptor (Homo sapiens, UniProt P14416); experiment: Binding affinity against human Dopamine receptor D2
[4] = molecular target: Voltage-gated inwardly rectifying potassium channel KCNH2 (Homo sapiens, UniProt Q12809); experiment: Binding affinity against human IKr channel
[5] = molecular target: 5-hydroxytryptamine receptor 2A (Rattus norvegicus) (UniProt P14842); experiment: In vivo occupancy at rat 5-HT2A receptor at 30 min after dosing at 10 mg/kg per orally; assay type: functional, organism-based
[6] = molecular target: T1, 5-hydroxytryptamine receptor 2C (Homo sapiens, UniProt P28335)
T1 sequence (P28335 whole entry): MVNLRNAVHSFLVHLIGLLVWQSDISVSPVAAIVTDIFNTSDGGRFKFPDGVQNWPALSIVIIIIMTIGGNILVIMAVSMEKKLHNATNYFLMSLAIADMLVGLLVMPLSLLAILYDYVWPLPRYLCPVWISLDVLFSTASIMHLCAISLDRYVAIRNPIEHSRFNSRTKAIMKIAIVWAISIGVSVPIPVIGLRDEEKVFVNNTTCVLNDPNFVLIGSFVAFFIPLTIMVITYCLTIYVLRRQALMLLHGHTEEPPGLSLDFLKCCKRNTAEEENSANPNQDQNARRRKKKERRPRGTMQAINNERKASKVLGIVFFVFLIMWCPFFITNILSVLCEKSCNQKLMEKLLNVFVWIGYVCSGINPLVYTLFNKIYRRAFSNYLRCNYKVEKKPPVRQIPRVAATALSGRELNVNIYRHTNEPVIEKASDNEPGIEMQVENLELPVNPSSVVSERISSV
Description: Binding affinity against human 5-hydroxytryptamine 2c receptor

[7] = pKa value of the compound; assay type: physicochemical
[8] = Bioavailability in rat; assay type: ADME, organism-based; details: in vivo
[9] = Half life period was determined; assay type: ADME; details: rat
[10] = Plasma clearance after i.v. administration in rat; assay type: ADME, organism-based; details: iv, read-out: Clp

Voltage-gated inwardly rectifying potassium channel KCNH2, sequence (Q12809 whole entry): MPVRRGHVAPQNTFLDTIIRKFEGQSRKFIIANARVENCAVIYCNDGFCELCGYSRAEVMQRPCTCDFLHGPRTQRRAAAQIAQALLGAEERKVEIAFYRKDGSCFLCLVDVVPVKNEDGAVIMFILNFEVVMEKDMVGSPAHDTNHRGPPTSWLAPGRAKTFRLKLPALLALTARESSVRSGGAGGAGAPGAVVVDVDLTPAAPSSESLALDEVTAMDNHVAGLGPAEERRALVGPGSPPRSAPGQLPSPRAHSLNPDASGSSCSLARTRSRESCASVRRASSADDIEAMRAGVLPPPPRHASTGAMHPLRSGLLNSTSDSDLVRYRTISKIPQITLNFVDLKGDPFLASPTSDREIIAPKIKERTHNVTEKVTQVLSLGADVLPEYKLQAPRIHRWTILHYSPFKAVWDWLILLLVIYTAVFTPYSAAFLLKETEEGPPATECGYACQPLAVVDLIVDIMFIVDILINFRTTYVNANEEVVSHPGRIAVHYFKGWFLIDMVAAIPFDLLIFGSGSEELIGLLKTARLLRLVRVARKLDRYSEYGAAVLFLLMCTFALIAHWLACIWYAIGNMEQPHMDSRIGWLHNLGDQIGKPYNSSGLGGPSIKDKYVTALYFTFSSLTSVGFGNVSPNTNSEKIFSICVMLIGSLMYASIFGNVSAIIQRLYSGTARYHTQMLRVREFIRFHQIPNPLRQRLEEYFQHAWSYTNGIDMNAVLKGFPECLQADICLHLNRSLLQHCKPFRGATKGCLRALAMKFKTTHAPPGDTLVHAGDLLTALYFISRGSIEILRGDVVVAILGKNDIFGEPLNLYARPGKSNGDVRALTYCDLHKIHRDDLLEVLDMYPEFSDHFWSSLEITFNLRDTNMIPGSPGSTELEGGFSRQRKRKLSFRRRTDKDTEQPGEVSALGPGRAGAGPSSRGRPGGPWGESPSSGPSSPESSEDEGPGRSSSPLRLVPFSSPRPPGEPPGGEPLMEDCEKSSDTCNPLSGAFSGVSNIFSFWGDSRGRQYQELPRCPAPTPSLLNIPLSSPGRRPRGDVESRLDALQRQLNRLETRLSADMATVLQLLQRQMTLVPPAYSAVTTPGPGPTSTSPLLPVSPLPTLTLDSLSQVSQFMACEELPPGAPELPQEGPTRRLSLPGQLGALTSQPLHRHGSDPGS
5-hydroxytryptamine receptor 2A (Homo sapiens, UniProt P28223), sequence (P28223 whole entry): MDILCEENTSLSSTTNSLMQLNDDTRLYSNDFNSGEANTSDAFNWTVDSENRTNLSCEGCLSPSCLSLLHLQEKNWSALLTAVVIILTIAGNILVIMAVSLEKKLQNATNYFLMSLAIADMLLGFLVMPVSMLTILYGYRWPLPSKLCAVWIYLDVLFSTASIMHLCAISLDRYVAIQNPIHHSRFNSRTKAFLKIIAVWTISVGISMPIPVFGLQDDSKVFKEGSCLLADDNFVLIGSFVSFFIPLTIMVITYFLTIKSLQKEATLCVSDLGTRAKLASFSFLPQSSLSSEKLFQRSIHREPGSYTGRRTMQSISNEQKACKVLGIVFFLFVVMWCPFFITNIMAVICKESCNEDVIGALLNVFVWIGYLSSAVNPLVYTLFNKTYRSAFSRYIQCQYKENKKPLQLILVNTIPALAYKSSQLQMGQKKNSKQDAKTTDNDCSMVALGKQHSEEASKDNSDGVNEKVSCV
5-hydroxytryptamine receptor 2A (Rattus norvegicus, UniProt P14842), sequence (P14842 whole entry): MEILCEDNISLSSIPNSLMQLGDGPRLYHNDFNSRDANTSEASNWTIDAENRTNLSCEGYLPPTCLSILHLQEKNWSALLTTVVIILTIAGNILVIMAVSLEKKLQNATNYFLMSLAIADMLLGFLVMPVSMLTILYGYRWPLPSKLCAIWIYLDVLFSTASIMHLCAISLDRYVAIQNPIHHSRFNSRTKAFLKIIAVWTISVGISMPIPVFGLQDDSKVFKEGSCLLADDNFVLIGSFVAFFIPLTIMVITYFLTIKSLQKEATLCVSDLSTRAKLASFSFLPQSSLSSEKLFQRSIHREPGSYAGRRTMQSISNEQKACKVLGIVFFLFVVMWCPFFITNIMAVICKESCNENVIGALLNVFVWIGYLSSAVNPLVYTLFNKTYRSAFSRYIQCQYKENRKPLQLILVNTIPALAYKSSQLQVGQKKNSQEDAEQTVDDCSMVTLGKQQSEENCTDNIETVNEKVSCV
5-hydroxytryptamine receptor 2A (Rattus norvegicus), sequence (P14842 whole entry): as above
D(2) dopamine receptor, sequence (P14416 whole entry): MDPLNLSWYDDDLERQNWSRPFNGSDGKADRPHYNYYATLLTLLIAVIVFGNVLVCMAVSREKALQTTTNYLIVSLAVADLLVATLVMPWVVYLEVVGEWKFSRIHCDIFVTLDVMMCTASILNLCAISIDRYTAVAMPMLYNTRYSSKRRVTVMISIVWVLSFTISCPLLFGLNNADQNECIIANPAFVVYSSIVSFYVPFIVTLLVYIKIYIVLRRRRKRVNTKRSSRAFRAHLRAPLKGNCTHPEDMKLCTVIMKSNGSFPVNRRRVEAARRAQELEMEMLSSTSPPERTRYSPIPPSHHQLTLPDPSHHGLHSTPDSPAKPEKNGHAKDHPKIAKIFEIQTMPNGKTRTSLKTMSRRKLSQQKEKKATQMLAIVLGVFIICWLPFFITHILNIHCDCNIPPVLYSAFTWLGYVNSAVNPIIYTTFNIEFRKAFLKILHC

| Compound | Ki [1] [nM] | Ki [2] [nM] | Ki [3] [nM] | Ki [4] [nM] | Activity [5] | Ki [6] [nM] | pKa [7] | bioavailability [8] [%] | half-life [9] [h] | clearance [10] [mL/min] |
| --- | --- | --- | --- | --- | --- | --- | --- | --- | --- | --- |
| O=S(=O)(c1ccc(-n2cccn2)cc1)C1(F)CCN(CCc2ccc(F)cc2F)CC1 | 2 | 1.6 | > 2000 | > 9000 | 37 | > 4000 |  |  |  |  |
| O=S(=O)(c1ccc(F)cc1)C1CCN(CCc2ccc(F)cc2F)CC1 |  |  |  |  |  |  | 7.2 |  |  |  |
| O=S(=O)(c1ccc(Cl)cc1)C1(F)CCN(CCc2ccc(F)cc2F)CC1 | 0.64 |  | > 1000 |  |  |  |  |  |  |  |
| O=C(CN1CCC(S(=O)(=O)c2ccccc2)CC1)c1ccc(F)cc1F | 2.4 | 0.51 | > 1500 | 6800 |  | 130 | 6.3 |  |  |  |
| O=S(=O)(c1ccccc1)C1(F)CCN(CCc2ccc(F)cc2F)CC1 | 0.68 |  | > 1000 | 2450 |  | 49 |  |  |  |  |
| O=S(=O)(c1ccc(-n2ccnn2)cc1)C1(F)CCN(CCc2ccc(F)cc2F)CC1 | 0.66 |  | > 2000 | > 9000 | 62 | > 4000 |  |  |  |  |
| O=S(=O)(c1ccccc1F)C1(F)CCN(CCc2ccc(F)cc2F)CC1 | 0.32 |  | 266 | 398 |  | 14 |  |  |  |  |
| N#Cc1ccc(S(=O)(=O)C2(F)CCN(CCc3ccc(F)cc3F)CC2)cc1 | 2.7 | 1.33 | 863 | 2700 | 80 | 1490 | 6.4 |  |  |  |
| O=S(=O)(c1ccc(F)cc1)C1(F)CCN(CCc2ccc(F)cc2F)CC1 | 0.39 | 0.63 | 313 | 5560 | 98% | 176 | 6.3 | 51 | 3.8 | 69 |
| O=S(=O)(c1ccc(N2CCC2)cc1)C1(F)CCN(CCc2ccc(F)cc2F)CC1 | 1 | 0.3 | > 2000 |  | 49 | 844 |  |  |  |  |
| O=S(=O)(c1ccccc1)C1CCN(CCc2ccc(F)cc2F)CC1 |  |  |  |  |  |  | 7.3 |  |  |  |
| O=S(=O)(c1cccc(F)c1)C1(F)CCN(CCc2ccc(F)cc2F)CC1 | 0.3 |  | 791 |  |  | 49 |  |  |  |  |
